# Assays:
# [1] = system: Clearfield sunflower variety A; assay: Greenhouse spray injury rating (Example 5); type: in vivo; conditions: in vivo
# Source text: (§1) Methods: Sunflower lines S4897, Clearfield® sunflower varieties A, B, C and a conventional non-Clearfield variety were sprayed with three rates of imazamox (Raptor™), 100, 200 and 300 gm ai/ha plus 0.5% Sun It II and two rates of imazapyr (Arsenal™) 160 and 360 gm ai/ha plus 0.5% Sun It II when the plants were at the two to three leaf stage. Ratings were taken at 14 days after application (DAT) for injury. Injury was rated on a scale from 0 to 9 where […] to 9=dead plant. Twelve plants were sprayed per herbicide/rate treatment. Statistical analysis was conducted with STATGRAPHICS Plus 5.0 by using ANOVA and LSD procedures.
# (§2) Results: After plants were sprayed, it was realized that a height difference between S4897 and other sunflower varieties would have impacted the actual herbicide dose that was delivered. The spray boom height had been calibrated against S4897 and since the other varieties were taller and closer to the boom they would have received a greater dose of herbicide. Rates were recalibrated for the other varieties to determine the approximate dose they would have received. Assessments were made as presented in Table 2 since it was not possible to make a direct rate comparison due to the effect of the height. For example injury scores were compare for S4897 treated imazamox rate 100 gm ai/ha to the other varieties treated at 75 gm ai/ha. The treatment dose of 300 gm ai/ha for line S4897 was equivalent to the treatment of 200 gm ai/ha for the other varieties, which approximately was 300 gm ai/ha.
# [2] = system: Clearfield sunflower variety B; assay: Greenhouse spray injury rating (Example 5); type: in vivo; conditions: in vivo
# Source text: as §1, §2
# [3] = system: Clearfield sunflower variety C; assay: Greenhouse spray injury rating (Example 5); type: in vivo; conditions: in vivo
# Source text: as §1, §2
# [4] = system: conventional non-Clearfield variety; assay: Greenhouse spray injury rating (Example 5); type: in vivo; conditions: in vivo
# Source text: as §1, §2
# [5] = system: sunflower GIM 5-6 (Restorer Line, A122T); assay: Greenhouse whole-plant imazapir dose response (Example 8); type: in vivo, Helianthus annuus; conditions: GIM5-6, 14 DAT
# Description: (§3) A greenhouse study was conducted to quantify and contrast the imazapir sensivity of the mutants A122T and A205V in different genetic backgrounds at the whole plant level in sunflower. Seeds of the different sunflower lines that were used in this study were obtained under field conditions.
# (§4) Seeds were sown in Petri dishes and, after germination, plantlets were transplanted to pots of 10 cm of diameter in a potting media consisting of equal parts of vermiculite, soil and sand. Plants were grown in a greenhouse under natural light conditions supplemented with 400 W sodium halide lamps to provide a 16 hrs daylength. Day/night temperatures were 25 and 20° C., respectively. At the V2 stage 10 plants of each genotype were randomly assigned to each treatment consisting of […] imazapir doses (0, 40, 80, 160, 240, 320, 400 and 480 g ai/ha), and a zero-time biomass determination. Experiment was arranged as a randomized block design with a full factorial (sunflower line×treatment) arrangement of treatments and 10 replications.
# (§5) On the day of herbicide application ten plants of each genotype were cut at the cotyledonal node and dried at 60° C. for 48 hrs zero-time for dried weight determination.
# (§6) Height was determined as the distance between the cotyledonal node and the apex of each plant. For root biomass determination, each plant was taken from the pot and the potting media was washed out from the roots. Above ground biomass data from each line were converted to biomass accumulation after application by subtracting the appropriate average zero-time biomass from each sample. Dry biomass data were converted to percentages of the untreated control plants within each line to allow direct comparisons between groups. […]
# [6] = system: sunflower GIM 5-7 (Manteiner Line, A205V); assay: as above; type: in vivo, Helianthus annuus; conditions: GIM5-7, 14 DAT
# Description: as §3, §4, §5, §6
# [7] = system: sunflower GM1606 (Manteiner Line, A122T); assay: as above; type: in vivo, Helianthus annuus; conditions: 14 DAT
# Description: as §3, §4, §5, §6
# [8] = system: sunflower IB920 (Manteiner Line, A205V); assay: as above; type: in vivo, Helianthus annuus; conditions: 14 DAT
# Description: as §3, §4, §5, §6
smiles,measurement,setting,value
CC(C)C1(C)N=C(c2ncccc2C(=O)O)NC1=O (stereo not drawn) [imazapyr],Injury (scale 0 to 9),[1],5.0 c
same,Injury (scale 0 to 9),[2],4.3 b
same,Injury (scale 0 to 9),[3],4.9 c
same,Injury (scale 0 to 9),[4],8.2 days
same,biomass accumulation (above ground dry weight),[5]; 0.5x (40 g ai/ha),100.0 % of untreated plots
same,plant height,[5]; 0.5x (40 g ai/ha),100.0 % of untreated plots
same,root dry weight,[5]; 0.5x (40 g ai/ha),100 % of untreated plots
same,biomass accumulation (above ground dry weight),[5]; 1x (80 g ai/ha),96.4 % of untreated plots
same,plant height,[5]; 1x (80 g ai/ha),100.0 % of untreated plots
same,root dry weight,[5]; 1x (80 g ai/ha),88.0 % of untreated plots
same,biomass accumulation (above ground dry weight),[5]; 2x (160 g ai/ha),97.7 % of untreated plots
same,plant height,[5]; 2x (160 g ai/ha),99.1 % of untreated plots
same,root dry weight,[5]; 2x (160 g ai/ha),90.0 % of untreated plots
same,biomass accumulation (above ground dry weight),[5]; 3x (240 g ai/ha),95.8 % of untreated plots
same,plant height,[5]; 3x (240 g ai/ha),98.1 % of untreated plots
same,root dry weight,[5]; 3x (240 g ai/ha),98.0 % of untreated plots
same,biomass accumulation (above ground dry weight),[5]; 4x (320 g ai/ha),90.8 % of untreated plots
same,plant height,[5]; 4x (320 g ai/ha),91.0 % of untreated plots
same,root dry weight,[5]; 4x (320 g ai/ha),80.0 % of untreated plots
same,biomass accumulation (above ground dry weight),[5]; 5x (400 g ai/ha),81.9 % of untreated plots
same,plant height,[5]; 5x (400 g ai/ha),94.3 % of untreated plots
same,root dry weight,[5]; 5x (400 g ai/ha),80.0 % of untreated plots
same,biomass accumulation (above ground dry weight),[5]; 6x (480 g ai/ha),78.0 % of untreated plots
same,plant height,[5]; 6x (480 g ai/ha),85.8 % of untreated plots
same,root dry weight,[5]; 6x (480 g ai/ha),65.8 % of untreated plots
same,biomass accumulation (above ground dry weight),[6]; 0.5x (40 g ai/ha),92.9 % of untreated plots
same,plant height,[6]; 0.5x (40 g ai/ha),79.1 % of untreated plots
same,root dry weight,[6]; 0.5x (40 g ai/ha),79.2 % of untreated plots
same,biomass accumulation (above ground dry weight),[6]; 1x (80 g ai/ha),75.1 % of untreated plots
same,plant height,[6]; 1x (80 g ai/ha),76.7 % of untreated plots
same,root dry weight,[6]; 1x (80 g ai/ha),56.3 % of untreated plots
same,biomass accumulation (above ground dry weight),[6]; 2x (160 g ai/ha),55.1 % of untreated plots
same,plant height,[6]; 2x (160 g ai/ha),57.7 % of untreated plots
same,root dry weight,[6]; 2x (160 g ai/ha),40.6 % of untreated plots
same,biomass accumulation (above ground dry weight),[6]; 3x (240 g ai/ha),45.6 % of untreated plots
same,plant height,[6]; 3x (240 g ai/ha),55.3 % of untreated plots
same,root dry weight,[6]; 3x (240 g ai/ha),40.2 % of untreated plots
same,biomass accumulation (above ground dry weight),[6]; 4x (320 g ai/ha),31.8 % of untreated plots
same,plant height,[6]; 4x (320 g ai/ha),27.3 % of untreated plots
same,root dry weight,[6]; 4x (320 g ai/ha),34.0 % of untreated plots
same,biomass accumulation (above ground dry weight),[6]; 5x (400 g ai/ha),34.2 % of untreated plots
same,plant height,[6]; 5x (400 g ai/ha),37.2 % of untreated plots
same,root dry weight,[6]; 5x (400 g ai/ha),48.5 % of untreated plots
same,biomass accumulation (above ground dry weight),[6]; 6x (480 g ai/ha),36.8 % of untreated plots
same,plant height,[6]; 6x (480 g ai/ha),30.0 % of untreated plots
same,root dry weight,[6]; 6x (480 g ai/ha),43.1 % of untreated plots
same,biomass accumulation (above ground dry weight),[7]; 0.5x (40 g ai/ha),100.0 % of untreated plots
same,plant height,[7]; 0.5x (40 g ai/ha),97.0 % of untreated plots
same,root dry weight,[7]; 0.5x (40 g ai/ha),100 % of untreated plots
same,biomass accumulation (above ground dry weight),[7]; 1x (80 g ai/ha),100.0 % of untreated plots
same,plant height,[7]; 1x (80 g ai/ha),95.7 % of untreated plots
same,root dry weight,[7]; 1x (80 g ai/ha),100.0 % of untreated plots
same,biomass accumulation (above ground dry weight),[7]; 2x (160 g ai/ha),97.6 % of untreated plots
same,plant height,[7]; 2x (160 g ai/ha),95.2 % of untreated plots
same,root dry weight,[7]; 2x (160 g ai/ha),92.5 % of untreated plots
same,biomass accumulation (above ground dry weight),[7]; 3x (240 g ai/ha),95.4 % of untreated plots
same,plant height,[7]; 3x (240 g ai/ha),95.7 % of untreated plots
same,root dry weight,[7]; 3x (240 g ai/ha),85.2 % of untreated plots
same,biomass accumulation (above ground dry weight),[7]; 4x (320 g ai/ha),90.5 % of untreated plots
same,plant height,[7]; 4x (320 g ai/ha),94.1 % of untreated plots
same,root dry weight,[7]; 4x (320 g ai/ha),87.0 % of untreated plots
same,biomass accumulation (above ground dry weight),[7]; 5x (400 g ai/ha),85.3 % of untreated plots
same,plant height,[7]; 5x (400 g ai/ha),94.3 % of untreated plots
same,root dry weight,[7]; 5x (400 g ai/ha),88.1 % of untreated plots
same,biomass accumulation (above ground dry weight),[7]; 6x (480 g ai/ha),83.0 % of untreated plots
same,plant height,[7]; 6x (480 g ai/ha),91.4 % of untreated plots
same,root dry weight,[7]; 6x (480 g ai/ha),69.5 % of untreated plots
same,biomass accumulation (above ground dry weight),[8]; 0.5x (40 g ai/ha),93.9 % of untreated plots
same,plant height,[8]; 0.5x (40 g ai/ha),96.2 % of untreated plots
same,root dry weight,[8]; 0.5x (40 g ai/ha),94.0 % of untreated plots
same,biomass accumulation (above ground dry weight),[8]; 1x (80 g ai/ha),87.9 % of untreated plots
same,plant height,[8]; 1x (80 g ai/ha),80.0 % of untreated plots
same,root dry weight,[8]; 1x (80 g ai/ha),89.6 % of untreated plots
same,biomass accumulation (above ground dry weight),[8]; 2x (160 g ai/ha),58.8 % of untreated plots
same,plant height,[8]; 2x (160 g ai/ha),61.5 % of untreated plots
same,root dry weight,[8]; 2x (160 g ai/ha),50.7 % of untreated plots
same,biomass accumulation (above ground dry weight),[8]; 3x (240 g ai/ha),48.4 % of untreated plots
same,plant height,[8]; 3x (240 g ai/ha),40.9 % of untreated plots
same,root dry weight,[8]; 3x (240 g ai/ha),37.3 % of untreated plots
same,biomass accumulation (above ground dry weight),[8]; 4x (320 g ai/ha),35.5 % of untreated plots
same,plant height,[8]; 4x (320 g ai/ha),27.9 % of untreated plots
same,root dry weight,[8]; 4x (320 g ai/ha),32.8 % of untreated plots
same,plant height,[8]; 5x (400 g ai/ha),30.0 % of untreated plots
same,root dry weight,[8]; 5x (400 g ai/ha),25.4 % of untreated plots
same,biomass accumulation (above ground dry weight),[8]; 6x (480 g ai/ha),29.4 % of untreated plots
same,plant height,[8]; 6x (480 g ai/ha),27.1 % of untreated plots
same,root dry weight,[8]; 6x (480 g ai/ha),19.4 % of untreated plots

# — patent US20180016593A1, “HERBICIDE-RESISTANT SUNFLOWER PLANTS, POLYNUCLEOTIDES ENCODING HERBICIDE-RESISTANT ACETOHYDROXYACID SYNTHASE LARGE SUBUNIT PROTEINS, AND METHODS OF USE” (priority 2005, published 2018)
